12 compounds from patent publication US10947252B2, “Inhibitors of KEAP1-Nrf2 protein-protein interaction” (Janssen Pharmaceutica NV, priority 2018, dated 2021) can be followed below.

In experiment [1] the test system is Glo-Response ARE-luc2P HEK293 cell line. The experiment is described as follows: ARE luciferase reporter cell-based assay.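 Note: luciferase signal tracks Nrf2 activation of the ARE once compounds disrupt KEAP1-Nrf2 binding, read with One-Glo reagent, DMSO serving as low control.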 Particulars: Homo sapiens, HEK293, 24 h, average of results obtained.
The target in experiment [2] is Kelch domain of human KEAP1 (321-624 aa) (Homo sapiens (Human), UniProt Q14145). The experiment can be described thus: KEAP1 KELCH ThermoFluor binding assay.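 Note: Ligand-induced melting temperature shift of E. coli-expressed KEAP1 Kelch protein, Kd estimated from concentration-response curves of ΔTm.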 As to conditions: KEAP Kelch […], 1,8-ANS, pH 7.0, average of results obtained, read-out: Tf Kd.
Chain of Kelch domain of human KEAP1 (321-624 aa) (Q14145 321-624): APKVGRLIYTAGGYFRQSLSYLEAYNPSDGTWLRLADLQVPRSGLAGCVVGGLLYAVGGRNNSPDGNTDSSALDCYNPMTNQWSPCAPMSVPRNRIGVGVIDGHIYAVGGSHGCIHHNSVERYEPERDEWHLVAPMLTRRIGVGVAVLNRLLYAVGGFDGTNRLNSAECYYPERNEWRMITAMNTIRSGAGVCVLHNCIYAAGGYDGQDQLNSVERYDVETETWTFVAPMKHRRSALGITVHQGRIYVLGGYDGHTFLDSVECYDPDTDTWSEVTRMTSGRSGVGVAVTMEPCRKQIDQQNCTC

Compound `Cc1ccc([C@H](CC(=O)O)c2ccn3c(C4CC4)nnc3c2C)cc1CN1C[C@H]2CCCN2c2ncccc2S1(=O)=O` (single isomer, unassigned) [Example 168, (*S)-3-(3-Cyclopropyl-8-methyl-[1,2,4]triazolo[4,3-a]pyridin-7-yl)-3-(3-(((R)-5,5-dioxido-7a,8,9,10-tetrahydropyrido[2,3-f]pyrrolo[2,1-d][1,2,5]thiadiazepin-6(7H)-yl)methyl)-4-methylphenyl)propanoic Acid] gave an EC50 in experiment [1] of 480 nM. In experiment [2], the Kd is < 1 nM.

Consider `Cc1cnc2c(c1)S(=O)(=O)N(Cc1nc(C(CC(=O)O)c3ccn4c(C(F)(F)F)nnc4c3C)ccc1C)C[C@@H]1CCCCN21` (stereo in doubt) [Example 487, 3-(8-Methyl-3-(trifluoromethyl)-[1,2,4]triazolo[4,3-a]pyridin-7-yl)-3-(5-methyl-6-(((*S)-3-methyl-5,5-dioxido-7,7a,8,9,10,11-hexahydro-6H-dipyrido[2,1-d:2′,3′-f][1,2,5]thiadiazepin-6-yl)methyl)pyridin-2-yl)propanoic Acid], for which the EC50 in experiment [1] was found to be 18.3 nM. For the same compound, in experiment [2], the Kd is < 1 nM.

`Cc1cnc2c(c1)S(=O)(=O)N(Cc1cc([C@@H](c3ccn4c(C(F)(F)F)nnc4c3C)C(C)(C)C(=O)O)ccc1C)CC1(CCNCC1)O2` (single isomer, unassigned) [Example 340, (*S)-2,2-Dimethyl-3-(4-methyl-3-((8′-methyl-1′,1′-dioxidospiro[piperidine-4,4′-pyrido[2,3-b][1,4,5]oxathiazepin]-2′(3′H)-yl)methyl)phenyl)-3-(8-methyl-3-(trifluoromethyl)-[1,2,4]triazolo[4,3-a]pyridin-7-yl)propanoic Acid] yielded an EC50 in experiment [1] of 629 nM. Further, the Kd in experiment [2] was found to be 1.24 nM.

Regarding `Cc1ccc(C(CC(=O)O)c2ccc3c(nnn3CC3CC3)c2C)cc1CN1CC2(CC2)N(C)c2ncccc2S1(=O)=O` (stereo not drawn) [Example 75, 3-(1-(Cyclopropylmethyl)-4-methyl-1H-benzo[d][1,2,3]triazol-5-yl)-3-(4-methyl-3-((5′-methyl-1′,1′-dioxido-5′H-spiro[cyclopropane-1,4′-pyrido[2,3-f][1,2,5]thiadiazepin]-2′(3′H)-yl)methyl)phenyl)propanoic Acid], the EC50 in experiment [1] stood at 14 nM. For the same compound, the Kd in experiment [2] was < 1 nM.

As to `Cc1ccc2c(n1)OC1(CC1)CN(Cc1cc([C@H](CC(=O)O)c3ccn4c(C(F)(F)F)nnc4c3C)ccc1C)S2(=O)=O` (single isomer, unassigned) [Example 538, (*S)-3-(4-Methyl-3-((7′-methyl-1′,1′-dioxidospiro[cyclopropane-1,4′-pyrido[2,3-b][1,4,5]oxathiazepin]-2′(3′H)-yl)methyl)phenyl)-3-(8-methyl-3-(trifluoromethyl)-[1,2,4]triazolo[4,3-a]pyridin-7-yl)propanoic Acid], the EC50 in experiment [1] amounted to 58.9 nM. Moreover, the Kd in experiment [2] was < 1 nM.

With `Cc1ccc([C@H](c2ccn3c(C4CC4)nnc3c2C)C(C)(C)C(=O)O)cc1CN1CC2(CC2)Oc2nc(OCCN3CCCC3)c(C)cc2S1(=O)=O` (single isomer, unassigned) [Example 664, (*R)-3-(3-Cyclopropyl-8-methyl-[1,2,4]triazolo[4,3-a]pyridin-7-yl)-2,2-dimethyl-3-(4-methyl-3-((8′-methyl-1′,1′-dioxido-7′-(2-(pyrrolidin-1-yl)ethoxy)spiro[cyclopropane-1,4′-pyrido[2,3-b][1,4,5]oxathiazepin]-2′(3′H)-yl)methyl)phenyl)propanoic Acid], the EC50 in experiment [1] is > 20000 nM. The Kd in experiment [2] is 1840 nM.

`Cc1ccc([C@@H](CC(=O)O)c2ccn3c(C(F)(F)F)nnc3c2C)cc1CN1CC2(CC2)Oc2ncccc2S1(=O)=O` (single isomer, unassigned) [Example 8, (*R)-3-(3-((1′,1′-dioxidospiro[cyclopropane-1,4′-pyrido[2,3-b][1,4,5]oxathiazepin]-2′(3′H)-yl)methyl)-4-methylphenyl)-3-(8-methyl-3-(trifluoromethyl)-[1,2,4]triazolo[4,3-a]pyridin-7-yl)propanoic Acid] gave a concentration for a half-maximal effect (EC50) in experiment [1] of 660 nM. The Kd in experiment [2] was 0.188 nM.

Turning to `Cc1ccc(C(CC(=O)O)c2ccn3c(C(F)(F)F)nnc3c2C)cc1CN1CC2(COC2)Oc2ncccc2S1(=O)=O` (stereo not drawn) [Example 259, 3-(3-((1′,1′-Dioxidospiro[oxetane-3,4′-pyrido[2,3-b][1,4,5]oxathiazepin]-2′(3′H)-yl)methyl)-4-methylphenyl)-3-(8-methyl-3-(trifluoromethyl)-[1,2,4]triazolo[4,3-a]pyridin-7-yl)propanoic Acid], the EC50 in experiment [1] is 201 nM. For the same compound, the Kd in experiment [2] is < 1 nM.

Consider `Cc1cnc2c(c1)S(=O)(=O)N(Cc1cc(C(c3ccc4c(nnn4C4CC4)c3C)C(C)(C)C(=O)O)cnc1C)CC1(CC1)O2` (racemic) [Example 394, (R/S)-3-(1-Cyclopropyl-4-methyl-1H-benzo[d][1,2,3]triazol-5-yl)-2,2-dimethyl-3-(6-methyl-5-((8′-methyl-1′,1′-dioxidospiro[cyclopropane-1,4′-pyrido[2,3-b][1,4,5]oxathiazepin]-2′(3′H)-yl)methyl)pyridin-3-yl)propanoic Acid], for which the EC50 in experiment [1] was determined as 40.1 nM. Also, the Kd in experiment [2] was < 1 nM.

For `Cc1ccc([C@H](c2ccn3c(C(F)(F)F)nnc3c2C)C(C)(C)C(=O)O)nc1CN1CC2(CCOCC2)Oc2nc(OCCN3CCOCC3)ccc2S1(=O)=O` (single isomer, unassigned) [Example 326, (*R)-2,2-Dimethyl-3-(8-methyl-3-(trifluoromethyl)-[1,2,4]triazolo[4,3-a]pyridin-7-yl)-3-(5-methyl-6-((7′-(2-morpholinoethoxy)-1′,1′-dioxido-2,3,5,6-tetrahydrospiro[pyran-4,4′-pyrido[2,3-b][1,4,5]oxathiazepin]-2′(3′H)-yl)methyl)pyridin-2-yl)propanoic Acid], in experiment [1], it took 4600 nM to reach a half-maximal effect (EC50). Besides, in experiment [2], the Kd came out at 3240 nM.

Consider `Cc1ccc([C@H](CC(=O)O)c2ccn3c(C(F)(F)F)nnc3c2C)cc1CN1C[C@H]2CCCN2c2ncccc2S1(=O)=O` (single isomer, unassigned) [Example 389, (*S)-3-(3-(((R)-5,5-Dioxido-7a,8,9,10-tetrahydropyrido[2,3-f]pyrrolo[2,1-d][1,2,5]thiadiazepin-6(7H)-yl)methyl)-4-methylphenyl)-3-(8-methyl-3-(trifluoromethyl)-[1,2,4]triazolo[4,3-a]pyridin-7-yl)propanoic Acid], for which, in experiment [1], the EC50 was determined as 12.1 nM. Further, the Kd in experiment [2] was < 1 nM.

`Cc1ccc(C(CC(=O)O)c2ccn3c(C(F)(F)F)nnc3c2C)nc1CN1CC2(COC2)Oc2ncccc2S1(=O)=O` (stereo not drawn) [Example 493, 3-(6-((1′,1′-Dioxidospiro[oxetane-3,4′-pyrido[2,3-b][1,4,5]oxathiazepin]-2′(3′H)-yl)methyl)-5-methylpyridin-2-yl)-3-(8-methyl-3-(trifluoromethyl)-[1,2,4]triazolo[4,3-a]pyridin-7-yl)propanoic Acid] had an EC50 in experiment [1] of 1230 nM. For the same compound, the Kd in experiment [2] is < 1 nM.
